Reference: patent US10150984B2, “Tyrosine kinase biosensors and methods of use” (Purdue Research Foundation, priority 2012, dated 2018)
Like-named read-outs stand apart in the source and are kept apart here. *1 amine or outer side, *2 acyl side, *3 side chain or, on linkers, in order; H or OH if unused. Where no end group is shown, it is not given here. [ ]: non-standard residue; d: D form. The star is where a group is joined. ξ: configuration not given here. ξβ3hPhg(2-NO2) = O=C(CC(N[*:1])c1ccccc1[N+](=O)[O-])[*:2]; Biotin = O=C1N[C@H]2[C@H](CS[C@H]2CCCCC(=O)*)N1

Experiments:
[1] = tested on: peripheral T-cell lymphomas (PTCLs); conditions: PTCL cells; cited from earlier work
Syk-EGFP = Syk-EGFP (Mus musculus, UniProt P48025); experiment: Terbium time-resolved luminescence dose-response inhibition assay with SAStide; format: biochemical; conditions: SAStide 37.5 μM, 30 min, Tb3+ luminescence, read-out: observed IC50
Chain of Syk-EGFP (P48025 whole entry): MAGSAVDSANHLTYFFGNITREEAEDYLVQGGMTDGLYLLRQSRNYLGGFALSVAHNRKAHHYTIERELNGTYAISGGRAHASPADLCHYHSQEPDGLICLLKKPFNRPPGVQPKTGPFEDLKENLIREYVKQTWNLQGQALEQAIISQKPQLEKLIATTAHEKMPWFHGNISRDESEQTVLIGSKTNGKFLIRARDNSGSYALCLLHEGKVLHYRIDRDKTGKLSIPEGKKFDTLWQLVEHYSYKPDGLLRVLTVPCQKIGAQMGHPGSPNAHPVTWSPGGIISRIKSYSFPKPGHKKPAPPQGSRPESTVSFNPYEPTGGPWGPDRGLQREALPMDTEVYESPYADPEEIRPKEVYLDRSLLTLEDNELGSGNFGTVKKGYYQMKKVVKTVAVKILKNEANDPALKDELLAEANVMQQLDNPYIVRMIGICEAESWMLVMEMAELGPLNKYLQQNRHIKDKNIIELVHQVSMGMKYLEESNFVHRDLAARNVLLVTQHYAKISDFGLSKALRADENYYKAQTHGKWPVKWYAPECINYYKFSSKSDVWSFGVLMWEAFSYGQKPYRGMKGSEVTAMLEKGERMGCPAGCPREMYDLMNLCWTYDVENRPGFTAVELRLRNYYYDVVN

[2] = Tb3+ binding affinity and stoichiometry by sensitized luminescence
Abl [3] = molecular target: T1, Abl (Homo sapiens, UniProt P00519); experiment: In vitro kinase assay, ELISA-based detection of peptide phosphorylation; format: biochemical; conditions: ELISA read-out
T1 sequence (P00519 whole entry, species assumed): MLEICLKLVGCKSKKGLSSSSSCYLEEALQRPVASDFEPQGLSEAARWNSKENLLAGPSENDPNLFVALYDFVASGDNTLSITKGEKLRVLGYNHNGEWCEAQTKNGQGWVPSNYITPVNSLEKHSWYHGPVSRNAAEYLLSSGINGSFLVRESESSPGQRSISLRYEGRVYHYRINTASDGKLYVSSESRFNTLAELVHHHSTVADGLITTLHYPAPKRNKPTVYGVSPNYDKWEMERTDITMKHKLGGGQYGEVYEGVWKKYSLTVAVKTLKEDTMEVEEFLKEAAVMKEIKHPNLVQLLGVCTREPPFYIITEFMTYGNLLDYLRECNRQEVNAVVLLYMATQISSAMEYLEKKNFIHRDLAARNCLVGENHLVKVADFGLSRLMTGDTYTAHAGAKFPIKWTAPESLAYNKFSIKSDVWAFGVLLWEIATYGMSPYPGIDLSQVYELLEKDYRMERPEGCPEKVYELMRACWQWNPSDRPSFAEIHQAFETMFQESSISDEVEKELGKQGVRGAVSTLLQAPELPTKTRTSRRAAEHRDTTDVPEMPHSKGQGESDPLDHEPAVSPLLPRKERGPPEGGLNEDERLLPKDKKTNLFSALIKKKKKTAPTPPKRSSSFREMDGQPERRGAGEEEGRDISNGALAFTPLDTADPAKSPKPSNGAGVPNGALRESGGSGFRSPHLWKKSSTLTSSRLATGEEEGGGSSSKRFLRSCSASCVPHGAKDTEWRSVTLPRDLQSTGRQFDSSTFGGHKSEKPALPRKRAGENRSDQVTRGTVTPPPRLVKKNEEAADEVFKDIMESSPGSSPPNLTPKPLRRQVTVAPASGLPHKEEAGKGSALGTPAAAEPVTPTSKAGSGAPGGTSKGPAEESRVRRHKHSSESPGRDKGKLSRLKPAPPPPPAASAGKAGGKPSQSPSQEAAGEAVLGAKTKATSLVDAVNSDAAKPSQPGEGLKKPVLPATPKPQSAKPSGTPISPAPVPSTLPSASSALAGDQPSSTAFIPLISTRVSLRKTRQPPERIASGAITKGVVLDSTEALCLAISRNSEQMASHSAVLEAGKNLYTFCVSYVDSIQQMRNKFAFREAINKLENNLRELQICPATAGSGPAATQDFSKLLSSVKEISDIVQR
Procedure: (§1) In vitro kinase assay. Recombinant Abl, Src and Lyn enzymes were obtained from a commercial source (Millipore). EGFP-conjugated Syk was isolated from DT40 chicken B cells stably expressing Syk-EGFP. GFP-conjugated Lck was isolated from Jurkat cells stably expressing Lck-EGFP. Cells were lysed using a solution containing 1% Nonidet P-40, 50 mM Tris-HCl pH 8.0, 100 mM NaCl, 5 mM EDTA, 1 mM sodium orthovanadate, 2 mM NaF and 1× mammalian protease inhibitor cocktail (Sigma). Syk- and Lck-EGFP were immunoprecipitated using GFP-Trap_A beads (Chromotek) or anti-GFP magnetic nanoparticle beads (MBL, Japan). Lysates were incubated with the beads for 1 h at 4° C. The kinase-bound beads were washed and then used in the in vitro kinase assay. Syk-EGFP, Lck-EGFP, or purified Abl or Src kinase (0.1 U) were incubated with kinase reaction buffer (500 μM ATP, 5 mM MnCl2, HEPES, pH 7.2) containing the peptide substrate at 25 μM. Aliquots (22 μL) were taken at designated time points and quenched in 0.5 M EDTA, pH 8.5 (22 μL). The quenched sample (1 μL) was diluted into ELISA-based detection wash buffer and analyzed as described below. For substrate comparison assays, kinase reaction conditions were as described above except that substrate concentrations were 4 μM, and concentration of enzyme used per reaction was 6 nM. The volume of aliquots diluted in an equal volume of quench buffer was 4 μl (for 8 μl total quenched volume), and the entire quenched amount was diluted into ELISA wash buffer and analyzed as described below.
(§2) ELISA-based fluorescence detection. Samples were incubated in a 96-well Neutravidin™ coated plate (Thermo Scientific) in Tris-buffered saline (TBS) containing 0.1% BSA and 0.05% Tween 20 for 1 h at room temperature on a short-radius plate shaker (600 rpm). Following incubation, wells were washed three times with wash buffer (TBS, 0.1% BSA, 0.05% Tween 20), then incubated with mouse anti-phosphotyrosine monoclonal antibody 4G10 (1:5000 dilution in wash buffer, 100 μL per well) for 1 h at room temperature with shaking. Wells were washed three times with wash buffer and incubated with horseradish peroxidase-conjugated goat anti-mouse immunoglobulin G (IgG) secondary antibody (Abcam) (1:1000 dilution in the wash buffer, 100 μL per well) for 1 h at room temperature with shaking. Wells were then washed three times with wash buffer and twice with sodium phosphate buffer (0.05 M, pH 7.5). For chemifluorescence detection, Amplex Red™ reaction buffer (100 μL total volume/well) consisting of Amplex Red™ reagent (50 μL) (Invitrogen), 20 mM H2O2 (500 μL) and sodium phosphate buffer (4500 μL) and allowed to react for 30 min. Fluorescence of Amplex Red™ was measure using a Synergy4 multiwell plate reader (Biotek) with an excitation wavelength of 532 nm and emission wavelength of 590 nm.

Lyn = Lyn (Homo sapiens, UniProt P07948); experiment: as above; format: biochemical; conditions: ELISA read-out
Chain of Lyn (P07948 whole entry, species assumed): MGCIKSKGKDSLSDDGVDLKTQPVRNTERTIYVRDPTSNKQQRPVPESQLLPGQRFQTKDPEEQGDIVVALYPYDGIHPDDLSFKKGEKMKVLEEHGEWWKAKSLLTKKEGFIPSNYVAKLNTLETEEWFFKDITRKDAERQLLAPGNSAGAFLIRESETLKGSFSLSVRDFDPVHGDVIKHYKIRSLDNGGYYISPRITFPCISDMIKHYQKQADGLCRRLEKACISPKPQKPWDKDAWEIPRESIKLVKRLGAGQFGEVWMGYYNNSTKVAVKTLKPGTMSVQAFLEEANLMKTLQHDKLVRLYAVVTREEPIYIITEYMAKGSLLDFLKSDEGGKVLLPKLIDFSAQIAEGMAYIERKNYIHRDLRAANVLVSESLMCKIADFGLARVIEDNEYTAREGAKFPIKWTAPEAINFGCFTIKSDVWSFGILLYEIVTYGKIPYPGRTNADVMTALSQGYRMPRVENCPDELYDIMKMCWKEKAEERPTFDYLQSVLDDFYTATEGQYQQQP
Procedure: as §1, §2

Src = Src (Homo sapiens, UniProt P12931); experiment: as above; format: biochemical; conditions: ELISA read-out
Procedure: as §1, §2

Syk = molecular target: T2, Syk (Mus musculus, UniProt P48025); experiment: as above; format: biochemical; conditions: ELISA read-out
T2 construct: made in house; host or cells: DT40 chicken B cells (Syk-deficient, reconstituted with Syk-EGFP)
T2 sequence (P48025 whole entry): as the sequence (P48025 whole entry) above
Procedure: as §1, §2

[4] = tested on: DG75 and DT40 B cell lines; experiment: Toxicity of SAStide biosensor peptide in the cell-based assay; conditions: peptide at 25 μM
Procedure: Cell culture and biological reagents. The DG75 and DT40 B cell lines were grown to a density of 0.4×10^6 cells/mL in RPMI-1640 medium containing 7.5% FBS, 1 mM sodium pyruvate, 100 IU/mL penicillin, 100 μg/mL streptomycin and 50 μM 2-metcaptoethanol. Additionally, DT40 cell medium contained 1% chicken serum. Anti-chicken IgM and anti-mouse IgM F(ab′)2 fragments were purchased from Bethyl Laboratories. Anti-human IgM was purchased from Rockland Immunochemicals. Hydrogen peroxide was purchased from Mallinckrodt. Anti-Syk (N-19) was purchased from Santa Cruz Biotechnology. Anti-tubulin and anti-phosphotyrosine (4G10) were purchased from Millipore. Anti-phospho Syk (Y525/526) was purchased from Cell SignalingTechnology.
Cell-Based peptide SAStide biosensor assay. […] Aliquots of the cell suspension (1 mL) were harvested, lysed in PhosphoSafe Extraction Reagent (EMD Millipore) containing 167 mM EDTA and freshly prepared protease inhibitor cocktail (Roche) and flash frozen. Half the cell lysate from each sample was used for ELISA-based fluorescence detection and the other for immunoblotting. For dose-response experiments, cells were stimulated with varying concentrations of anti-IgM (2.5-10 μg/mL) or hydrogen peroxide (1-7 mM), harvested at 5 min post-stimulation and processed as described above. For immunoblotting, membranes were blocked in 5% goat serum for 1 h. […]

Bcr-Abl [5] = molecular target: T3, Bcr-Abl (Homo sapiens, UniProt P00519); experiment: Cell-based Bcr-Abl biosensor assay in K562 cells, Western blot
T3 sequence (P00519 with tags, fused parts or gaps): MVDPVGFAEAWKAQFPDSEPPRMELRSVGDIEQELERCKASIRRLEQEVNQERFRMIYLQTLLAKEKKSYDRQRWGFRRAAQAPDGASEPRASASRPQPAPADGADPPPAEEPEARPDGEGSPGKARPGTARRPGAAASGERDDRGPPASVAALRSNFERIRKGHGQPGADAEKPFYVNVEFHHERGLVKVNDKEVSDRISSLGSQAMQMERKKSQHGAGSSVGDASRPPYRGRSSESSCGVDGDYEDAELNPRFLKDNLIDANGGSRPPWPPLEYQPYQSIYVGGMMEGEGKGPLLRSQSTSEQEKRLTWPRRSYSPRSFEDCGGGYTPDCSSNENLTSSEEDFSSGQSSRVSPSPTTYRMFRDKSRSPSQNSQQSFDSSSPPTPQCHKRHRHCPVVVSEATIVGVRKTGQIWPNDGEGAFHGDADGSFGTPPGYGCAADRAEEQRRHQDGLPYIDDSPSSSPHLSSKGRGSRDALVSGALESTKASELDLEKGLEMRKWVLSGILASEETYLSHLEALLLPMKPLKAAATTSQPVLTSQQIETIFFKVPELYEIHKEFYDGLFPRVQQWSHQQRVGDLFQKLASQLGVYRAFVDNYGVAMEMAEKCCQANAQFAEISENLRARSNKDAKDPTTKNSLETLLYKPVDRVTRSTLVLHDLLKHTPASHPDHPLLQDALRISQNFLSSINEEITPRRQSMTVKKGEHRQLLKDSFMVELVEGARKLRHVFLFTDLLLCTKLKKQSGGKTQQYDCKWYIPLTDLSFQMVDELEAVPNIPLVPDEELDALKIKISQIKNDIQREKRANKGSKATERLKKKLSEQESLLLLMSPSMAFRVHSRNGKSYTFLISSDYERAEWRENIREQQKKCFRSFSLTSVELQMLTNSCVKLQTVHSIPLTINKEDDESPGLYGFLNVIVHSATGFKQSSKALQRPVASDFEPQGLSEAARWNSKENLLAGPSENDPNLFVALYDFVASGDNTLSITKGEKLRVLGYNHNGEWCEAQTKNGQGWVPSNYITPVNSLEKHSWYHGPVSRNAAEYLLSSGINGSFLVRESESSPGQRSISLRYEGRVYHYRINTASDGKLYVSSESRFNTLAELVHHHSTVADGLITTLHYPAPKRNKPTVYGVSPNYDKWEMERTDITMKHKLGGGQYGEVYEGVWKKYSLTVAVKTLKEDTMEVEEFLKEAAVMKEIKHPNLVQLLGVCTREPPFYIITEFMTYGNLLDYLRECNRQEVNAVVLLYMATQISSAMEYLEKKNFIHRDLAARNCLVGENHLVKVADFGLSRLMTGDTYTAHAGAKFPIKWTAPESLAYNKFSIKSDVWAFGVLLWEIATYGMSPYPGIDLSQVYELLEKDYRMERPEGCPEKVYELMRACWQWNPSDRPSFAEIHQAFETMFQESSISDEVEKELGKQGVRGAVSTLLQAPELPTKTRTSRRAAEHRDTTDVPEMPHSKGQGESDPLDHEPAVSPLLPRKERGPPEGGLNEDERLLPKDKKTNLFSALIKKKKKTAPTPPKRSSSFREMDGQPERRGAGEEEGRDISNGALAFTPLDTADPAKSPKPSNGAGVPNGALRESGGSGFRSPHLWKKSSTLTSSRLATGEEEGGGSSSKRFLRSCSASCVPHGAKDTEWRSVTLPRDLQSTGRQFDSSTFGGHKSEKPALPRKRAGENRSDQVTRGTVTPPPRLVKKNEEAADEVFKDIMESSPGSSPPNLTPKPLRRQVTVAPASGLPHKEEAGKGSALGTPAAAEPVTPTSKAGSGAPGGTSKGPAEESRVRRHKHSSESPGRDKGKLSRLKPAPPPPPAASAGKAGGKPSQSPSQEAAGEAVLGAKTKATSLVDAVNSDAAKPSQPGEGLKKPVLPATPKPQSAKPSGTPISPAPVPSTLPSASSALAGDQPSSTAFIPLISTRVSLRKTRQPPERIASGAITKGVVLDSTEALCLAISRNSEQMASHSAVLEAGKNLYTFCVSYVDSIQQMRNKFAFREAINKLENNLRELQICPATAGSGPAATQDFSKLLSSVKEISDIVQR

K562 cells = experiment: Intracellular degradation of biosensor peptide in K562 cells, MALDI-TOF/TOF; conditions: 5 min exposure
Abl [6] = molecular target: T1, Abl; experiment: ABStide specificity in vitro kinase assay (terbium luminescence, confirmed by ELISA); format: biochemical; conditions: terbium-sensitized luminescence
Procedure: Terbium based in vitro kinase assays. Recombinant kinases were incubated with the kinase reaction buffer (15 nM kinase, 100 μM ATP, 10 mM MgCl2, 125 ng/μL BSA and 25 mM HEPES pH 7.5, total volume 180 μL) containing 12.5 μM biosensor at 30° C. Aliquots (20 μL) were taken at designated time points (0.5, 5, 10, 15, 30, 45 and 60 min) and quenched in 6 M urea (20 μL). The quenched samples were then treated with the luminescence buffer (500 μM Tb^3+ and 500 mM NaCl, 10 μL) for a total volume of 50 μL (final concentrations of sample components: 2.4 M urea, 40 μM ATP, 4 mM MgCl2, 50 ng/μL BSA and 10 mM HEPES pH 7.5). Luminescence emission spectra were collected as described above and the area under each spectrum was integrated using GraphPad Prism. An additional aliquot (2 μL) of the kinase reaction mixture was taken at each time point for validation of phosphorylation using an ELISA-based chemifluorescent assay as previously described. Briefly, each aliquot was quenched with 0.5 M EDTA and incubated in a 96-well Neutravidin coated plate (15 pmol biotin binding capacity per well, Thermo Scientific) in Tris-buffer saline (TBS) containing 0.1% BSA and 0.05% Tween 20 for 1 h. […] Fluorescence was measured using a Synergy4 multiwell plate reader (Biotek) with an excitation wavelength of 532 nm and emission wavelength of 590 nm.

Bcr-Abl [7] = molecular target: T3, Bcr-Abl; experiment: Cell-based Bcr-Abl biosensor assay in K562 cells, MRM mass spectrometry; parameters: endogenous in cells; host or cells: K562 cells; the other entry of the earlier key: BCR (P11274, Breakpoint cluster region protein); conditions: 5 min, 1 μg lysate
[8] = 1 μM peptide, Tb3+ 0-50 μM, read-out: Kd of peptide:terbium complex

COc1cc(Nc2ncc(F)c(Nc3ccc4c(n3)NC(=O)C(C)(C)O4)n2)cc(OC)c1OC [R406]
effect on cells with elevated Syk Y525/Y526 phosphorylation [1]: induces apoptosis and blocks proliferation

Oc1cc(O)cc(/C=C/c2ccc(O)c(O)c2)c1 [piceatannol]
IC50 (Syk-EGFP): 178 ± 1.4 µM

DEEDYEEPDEP [SAStide]
Kd ([2]; read-out: Kd of 1:1 peptide-terbium complex): 7.64 ± 0.32 µM | phosphorylation of peptide by Abl (Abl [3]): none of which produced any significant signal | phosphorylation of peptide by Lyn (Lyn): none of which produced any significant signal | phosphorylation of peptide by Src (Src): none of which produced any significant signal | phosphorylation of peptide by Syk (Syk): phosphorylated | toxicity of peptide to cells [4]: no toxicity was observed

EAIYAAPFAKKK(Biotin)G[ξβ3hPhg(2-NO2)]GCGGAPTYSPPPPPGGRKKRRQRRRLL [Abl biosensor]
uptake into K562 cells (Bcr-Abl [5]; 25 μM peptide): readily taken up | intact peptide after exposure to cells (K562 cells): essentially no intact peptide was observed

GGDEDDNDEVAYQAPFEDGGKbiotinGG (GGDEDDNDEVAYQAPFEDGGK(Biotin)GG) [ABStide, Abl artificial substrate peptide]
substrate specificity Abl against Hck (Abl [6]): specific for Abl

GGDNEGDVYDFVEDGGKbiotin (GGDNEGDVYDFVEDGGK(Biotin)GG) [SFAStideB, Src family artificial substrate peptide B]
Kd [2, 8]: 2.5 µM

GGEEDEDIYEELDEPGGKbiotinGG [SFAStide-A]
Kd [2, 8]: 3.93 µM | phosphorylation of peptide by Abl (Abl [3]): will not | phosphorylation of peptide by Lyn (Lyn): phosphorylate SFAStide-A efficiently | phosphorylation of peptide by Src (Src): phosphorylate SFAStide-A efficiently | phosphorylation of peptide by Syk (Syk): will not

pSFAStideA [Phosphorylated form of SFAStide-A]
Kd [2, 8]: 0.77 µM

pervanadate [reference compound]
effect on phosphorylation of Abl biosensor (Bcr-Abl [5]; K562 cells, 10 μM imatinib or 1 μM pervanadate, 5, 30, 60 min): stabilized | phosphorylated biosensor peptide detected (Bcr-Abl [7]): higher levels
